Results as given in ChEMBL document CHEMBL1201862, “PubChem BioAssay data set” (2004).
Active and inactive are the calls of the source.

Assays:
[1] = inhibitors of Vif binding to APOBEC3G peptide, primary screen, biochemical, TR-FRET, GST-Vif 1-94, biotin-A3G peptide, dose response retest (AID 1117319); type: functional;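 further: TR-FRET signal of purified GST-Vif binding a biotinylated A3G peptide; inhibitors lower the FRET signal by blocking Vif and A3G binding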
[2] = Vero cell cytotoxicity, dose response, cytotoxicity control for Vif-APOBEC3G degradation inhibitor project, Vero cells (AID 1117358); type: functional; settings: Human immunodeficiency virus 1, Vero
[3] = molecular target: Mitogen-activated protein kinase 10 (Homo sapiens, UniProt P53779); experiment: Dose response biochemical screening assay for inhibitors of c-Jun N-Terminal Kinase 3 (JNK3). [Related pubchem assays: 746 ]
[4] = cytotoxicity toward Colo320 cells – cell-based, CellTiter-Glo luminescence, IC50, dose response (AID 1117334); type: functional; settings: COLO 320
[5] = molecular target: SWI/SNF-related matrix-associated actin-dependent regulator of chromatin subfamily A member 2 (Homo sapiens, UniProt P51531); experiment: Luminescence-based cell-based high throughput dose response assay to identify activators of the function of SWI/SNF related, matrix associated, actin dependent regulator of chromatin, subfamily a, member 2 (SMARCA2, BRM).; type: functional
[6] = cytotoxicity toward HCT116 cells – cell-based, CellTiter-Glo luminescence, IC50, dose response (AID 1117332); type: functional; settings: HCT-116
cells = type: functional, cell-based; settings: INS-1E
[7] = HCT116 cell viability decrease, GSK3B pretreatment – CellTiter-Glo, IC50, dose response (AID 1117339); type: functional; settings: HCT-116
[8] = CellTiter-Glo luminescent dose response of DLD-1 viability loss (AID 1117352); type: functional
[9] = Concentration-dependent survival of SW480 colon cancer line, luminescence detection with CellTiter-Glo, half-maximal inhibitory concentration (AID 1117338); type: functional
[10] = HepG2 cell cytotoxicity, dose response, cytotoxicity control, ATP luminescence, cherry-pick, activator set 2 (AID 1053143); type: functional, cell-based
[11] = Counterscreen for activators of the function of SWI/SNF related, matrix associated, actin dependent regulator of chromatin, subfamily a, member 2 (SMARCA2, BRM): Luminescence-based cell-based high throughput dose response assay to identify non-selective compounds using the VP16 reporter assay.; type: functional
[12] = molecular target: T1, DNA repair protein RAD52 homolog (Homo sapiens, UniProt P43351); type: functional, biochemical
T1 sequence (P43351 whole entry): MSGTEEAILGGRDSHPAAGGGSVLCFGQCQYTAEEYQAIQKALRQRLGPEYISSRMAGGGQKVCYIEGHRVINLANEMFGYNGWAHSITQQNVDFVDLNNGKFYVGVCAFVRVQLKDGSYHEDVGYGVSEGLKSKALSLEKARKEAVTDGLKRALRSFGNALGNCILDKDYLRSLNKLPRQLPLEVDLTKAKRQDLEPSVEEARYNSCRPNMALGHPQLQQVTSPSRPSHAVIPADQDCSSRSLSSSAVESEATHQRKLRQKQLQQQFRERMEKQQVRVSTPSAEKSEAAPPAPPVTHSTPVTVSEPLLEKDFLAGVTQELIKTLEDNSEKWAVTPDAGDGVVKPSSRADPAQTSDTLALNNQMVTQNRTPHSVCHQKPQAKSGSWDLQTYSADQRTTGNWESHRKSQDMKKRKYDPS

[13] = SNU-C1 cell viability reduction, dose response, CellTiter-Glo luminescence (AID 1117323); type: functional, cell-based
[14] = Dose-response inhibition of insulin secretion in a rat insulinoma line at 5 mM glucose (AID 1117331); type: functional, cell-based; settings: INS-1E
[15] = cytotoxicity toward NIH3T3 fibroblasts, dose response, counter-screen, cell-based, ATP luminescence, mouse fibroblasts (AID 2010); type: functional;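 further: cells exposed to compound for about 90 hours before reading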
[16] = RKO cell viability reduction, dose response, CellTiter-Glo luminescence (AID 1117322); type: functional
[17] = inhibitors of intracellular T. cruzi replication, confirmation, NIH3T3 host cells, beta-gal luminescence (AID 2044); type: functional, cell-based;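 further: intracellular parasites grown in NIH/3T3 mouse fibroblasts as host cells; luminescent beta-galactosidase reporter signal from transgenic T. cruzi replicating inside host cells; inhibitors lower the luminescence signal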
[18] = cytotoxicity toward HT-29 cells – cell-based, CellTiter-Glo luminescence, IC50, dose response (AID 1117330); type: functional
Caspase-6 = molecular target: T2, Caspase-6 (Homo sapiens, UniProt P55212); experiment: human caspase-6 inhibitors, dose response, biochemical, VEID-R110 fluorescence, cherry-pick (AID 720632)
T2 sequence (P55212 whole entry): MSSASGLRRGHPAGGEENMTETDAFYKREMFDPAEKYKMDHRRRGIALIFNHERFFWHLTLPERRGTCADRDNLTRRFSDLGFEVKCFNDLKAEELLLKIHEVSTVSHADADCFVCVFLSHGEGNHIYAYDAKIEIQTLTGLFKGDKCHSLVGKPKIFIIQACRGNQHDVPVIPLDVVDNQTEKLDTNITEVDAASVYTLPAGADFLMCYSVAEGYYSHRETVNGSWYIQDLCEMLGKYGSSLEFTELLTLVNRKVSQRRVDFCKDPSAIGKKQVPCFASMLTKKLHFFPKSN

[19] = molecular target: T3, Rac GTPase-activating protein 1 (Homo sapiens, UniProt Q9H0H5); experiment: MgcRacGAP GTPase-activating activity inhibitors, confirmation, biochemical, ADP Hunter fluorescence, primary and confirmatory (AID 624330); type: functional
T3 sequence (Q9H0H5 whole entry): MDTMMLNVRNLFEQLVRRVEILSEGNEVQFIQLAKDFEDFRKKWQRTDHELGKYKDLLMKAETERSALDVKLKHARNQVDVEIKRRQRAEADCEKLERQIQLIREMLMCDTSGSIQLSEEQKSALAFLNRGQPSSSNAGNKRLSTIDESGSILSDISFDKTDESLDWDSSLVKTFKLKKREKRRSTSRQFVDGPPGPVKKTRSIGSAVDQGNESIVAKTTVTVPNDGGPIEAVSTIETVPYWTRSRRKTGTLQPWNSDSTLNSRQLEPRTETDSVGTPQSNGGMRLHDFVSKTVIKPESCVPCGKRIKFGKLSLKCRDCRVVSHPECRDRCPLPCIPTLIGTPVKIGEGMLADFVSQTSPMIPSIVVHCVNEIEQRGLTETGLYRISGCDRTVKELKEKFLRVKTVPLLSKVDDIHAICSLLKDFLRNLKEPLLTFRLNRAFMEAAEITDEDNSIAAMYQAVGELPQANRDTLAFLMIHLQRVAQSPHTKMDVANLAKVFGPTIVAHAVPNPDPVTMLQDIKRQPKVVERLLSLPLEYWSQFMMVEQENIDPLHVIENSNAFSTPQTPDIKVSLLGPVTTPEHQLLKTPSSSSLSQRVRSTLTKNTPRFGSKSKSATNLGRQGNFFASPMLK

Protein Tat = Protein Tat (Human immunodeficiency virus type 1 group M subtype B (isolate HXB2)(HIV-1), UniProt P04608); type: functional;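 further: tat binding to TAR RNA read out by fluorescence polarization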
ELAV-like protein 1 = ELAV-like protein 1 (Homo sapiens, UniProt Q15717); experiment: Identify HuR specific inhibitors.; type: functional
[20] = P. falciparum ATP4 D1247Y mutant growth inhibitors, dose response, NITD609-resistant line, SYBR Green, dry powder (AID 1159571); type: functional, cell-based;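 further: parasites synchronized at ring stage by sorbitol before testing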
[21] = HepG2 cell cytotoxicity, dose response, cytotoxicity control, plate reader, dry powder samples (AID 1159569); type: functional, cell-based;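 further: inhibitor potency with signal falling toward the positive control level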
[22] = P. falciparum Dd2 growth inhibitors, dose response, SYBR Green, cherry-picked samples (AID 1159567); type: functional, cell-based
[23] = P. falciparum 3D7-ScDHODH growth inhibitors, dose response, SYBR Green, dry powder samples (AID 1159570); type: functional, cell-based;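 further: parasite growth measured after 72 hours of compound exposure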
[24] = P. falciparum Dd2 growth inhibitors, dose response, SYBR Green, dry powder samples (AID 1159566); type: functional, cell-based;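 further: potency for growth inhibition with lower SYBR green DNA signal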
[25] = HepG2 cell cytotoxicity, dose response, cytotoxicity control, cherry-picked samples (AID 1159577); type: functional, cell-based
[26] = molecular target: T4, Low molecular weight phosphotyrosine protein phosphatase (Homo sapiens, UniProt P24666); experiment: LMPTP phosphatase inhibitors, dose response, biochemical, OMFP substrate, fluorescence intensity, set 2 (AID 743307); type: functional
T4 sequence (P24666 whole entry): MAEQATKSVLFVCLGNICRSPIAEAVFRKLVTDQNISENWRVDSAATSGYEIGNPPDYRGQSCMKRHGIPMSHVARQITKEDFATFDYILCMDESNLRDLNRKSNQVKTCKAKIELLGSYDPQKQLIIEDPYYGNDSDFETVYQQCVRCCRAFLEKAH

[27] = molecular target: T4, Low molecular weight phosphotyrosine protein phosphatase; experiment: LMPTP phosphatase inhibitors, colorimetric pNPP readout, dose response, orthogonal assay, biochemical, absorbance, pNPP substrate, LMPTP-A isoform, set 2 (AID 743308); type: functional
[28] = HepG2 cell cytotoxicity, dose response, cytotoxicity control, luminescence, dry powder, set 9 (AID 743358); type: functional, cell-based
[29] = half-maximal inhibitory concentration for glucagon-like peptide-1 release, STC-1 cell line, dose-response (AID 1117345); type: functional, cell-based
[30] = Glucagon-like peptide 1 release potency, NCI-H716 cell line, dose-response, half-maximal inhibitory concentration (AID 1117344); type: functional, cell-based

Chain of Mitogen-activated protein kinase 10 (P53779 whole entry): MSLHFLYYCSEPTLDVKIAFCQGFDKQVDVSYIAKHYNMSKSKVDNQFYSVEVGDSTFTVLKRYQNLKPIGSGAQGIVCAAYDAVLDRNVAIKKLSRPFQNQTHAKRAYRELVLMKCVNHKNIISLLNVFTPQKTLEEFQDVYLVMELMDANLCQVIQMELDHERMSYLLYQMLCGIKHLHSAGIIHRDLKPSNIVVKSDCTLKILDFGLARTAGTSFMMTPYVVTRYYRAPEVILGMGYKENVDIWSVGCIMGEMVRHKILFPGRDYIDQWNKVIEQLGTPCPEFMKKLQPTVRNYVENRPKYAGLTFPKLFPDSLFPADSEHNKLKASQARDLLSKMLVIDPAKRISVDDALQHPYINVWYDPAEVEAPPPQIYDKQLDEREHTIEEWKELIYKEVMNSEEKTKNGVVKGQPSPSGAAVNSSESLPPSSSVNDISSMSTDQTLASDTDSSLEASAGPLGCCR
Chain of SWI/SNF-related matrix-associated actin-dependent regulator of chromatin subfamily A member 2 (P51531 whole entry): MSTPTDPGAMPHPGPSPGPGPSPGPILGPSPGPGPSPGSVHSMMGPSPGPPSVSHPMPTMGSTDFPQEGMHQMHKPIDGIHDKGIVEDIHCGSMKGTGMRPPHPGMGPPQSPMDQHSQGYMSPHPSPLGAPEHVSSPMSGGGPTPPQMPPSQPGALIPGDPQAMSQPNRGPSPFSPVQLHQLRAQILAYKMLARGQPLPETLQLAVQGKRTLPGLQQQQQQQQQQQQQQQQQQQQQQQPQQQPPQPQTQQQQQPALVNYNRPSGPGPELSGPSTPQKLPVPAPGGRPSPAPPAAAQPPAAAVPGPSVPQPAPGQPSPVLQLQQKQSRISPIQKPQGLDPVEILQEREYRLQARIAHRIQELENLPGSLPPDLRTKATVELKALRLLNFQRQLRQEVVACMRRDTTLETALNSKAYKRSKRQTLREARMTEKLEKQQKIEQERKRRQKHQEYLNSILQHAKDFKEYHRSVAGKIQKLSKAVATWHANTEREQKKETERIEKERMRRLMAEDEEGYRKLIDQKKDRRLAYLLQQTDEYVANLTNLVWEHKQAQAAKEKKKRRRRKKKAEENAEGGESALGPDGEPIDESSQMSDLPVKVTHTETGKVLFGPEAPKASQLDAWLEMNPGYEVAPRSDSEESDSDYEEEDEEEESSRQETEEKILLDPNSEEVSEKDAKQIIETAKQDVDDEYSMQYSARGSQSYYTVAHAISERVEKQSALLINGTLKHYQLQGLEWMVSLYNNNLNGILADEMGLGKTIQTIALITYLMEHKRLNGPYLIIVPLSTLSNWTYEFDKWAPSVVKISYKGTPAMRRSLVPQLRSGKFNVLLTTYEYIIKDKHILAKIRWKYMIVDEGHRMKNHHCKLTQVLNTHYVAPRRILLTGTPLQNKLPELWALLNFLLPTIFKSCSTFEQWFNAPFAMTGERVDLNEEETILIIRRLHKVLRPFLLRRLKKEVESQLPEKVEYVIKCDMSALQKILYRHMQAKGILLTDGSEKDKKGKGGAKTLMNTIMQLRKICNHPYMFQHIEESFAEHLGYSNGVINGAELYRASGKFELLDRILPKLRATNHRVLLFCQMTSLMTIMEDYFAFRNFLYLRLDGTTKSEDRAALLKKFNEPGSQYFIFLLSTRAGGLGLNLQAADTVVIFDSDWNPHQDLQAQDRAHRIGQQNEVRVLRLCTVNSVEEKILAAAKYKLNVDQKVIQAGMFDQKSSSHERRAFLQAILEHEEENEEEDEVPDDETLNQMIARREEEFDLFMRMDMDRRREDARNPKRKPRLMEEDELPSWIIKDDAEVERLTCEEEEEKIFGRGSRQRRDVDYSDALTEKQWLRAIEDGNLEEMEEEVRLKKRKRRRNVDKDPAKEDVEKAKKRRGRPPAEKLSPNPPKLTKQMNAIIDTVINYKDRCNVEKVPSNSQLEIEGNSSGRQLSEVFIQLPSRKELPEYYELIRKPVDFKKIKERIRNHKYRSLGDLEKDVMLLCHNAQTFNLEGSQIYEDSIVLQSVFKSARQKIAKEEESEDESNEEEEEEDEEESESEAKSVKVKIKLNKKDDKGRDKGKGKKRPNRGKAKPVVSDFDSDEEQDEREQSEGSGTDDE
Chain of ELAV-like protein 1 (Q15717 whole entry): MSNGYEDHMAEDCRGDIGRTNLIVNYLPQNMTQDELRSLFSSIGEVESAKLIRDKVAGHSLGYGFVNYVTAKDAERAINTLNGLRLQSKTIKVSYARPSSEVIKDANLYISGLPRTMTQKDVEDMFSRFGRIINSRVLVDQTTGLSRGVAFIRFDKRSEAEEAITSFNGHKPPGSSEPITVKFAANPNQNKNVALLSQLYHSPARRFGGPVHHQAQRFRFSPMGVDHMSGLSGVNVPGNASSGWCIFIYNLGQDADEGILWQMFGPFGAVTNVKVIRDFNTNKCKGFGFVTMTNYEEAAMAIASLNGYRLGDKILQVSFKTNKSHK
Chain of Protein Tat (P04608 whole entry): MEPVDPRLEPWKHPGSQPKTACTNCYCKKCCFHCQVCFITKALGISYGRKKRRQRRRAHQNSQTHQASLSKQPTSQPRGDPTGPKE

CCOC(=O)c1c(NC(=O)C(C)N2CCN(C(=O)c3ccco3)CC2)sc2c1CCCC2 (configuration not stated)
active: IC50 [1] > 100 µM | CC50 [2] 21.6 µM

O=C1C(c2ccncc2)=C(O)c2ccccc21
active: IC50 [3] 6.69 µM

Nc1c2ccccc2nc2ccccc12
inactive: IC50 [4] 8.81 µM | IC50 (cells) > 33.3 µM | IC50 [8] > 20 µM | IC50 [9] > 20 µM | EC50 [11] > 91.1 µM | IC50 [13] > 6.67 µM | IC50 [14] 18.5 µM | IC50 [16] > 6.67 µM | IC50 [18] > 20 µM
active: EC50 [5] > 3.37 µM | IC50 [6] 2.02 µM | IC50 [7] 3.87 µM | AC50 [10] 6.26 µM | AC50 [12] 2.48 µM | EC50 [15] 10.6 µM | EC50 [17] 1.16 µM

Cc1ccc(Nc2ccc(N)cc2S(=O)(=O)O)cc1
inconclusive: IC50 (Protein Tat) 49.3 µM
active: AC50 (Caspase-6) 13.7 µM | IC50 [19] 40.2 µM | IC50 (ELAV-like protein 1) 41 µM

Cc1ccc(-c2ccc([C@@H]3[C@H](CO)N4CCCCN(S(=O)(=O)c5cccc(C)c5)C[C@@H]34)cc2)cc1
active: AC50 [20] 0.87 µM | AC50 [21] 16.4 µM | AC50 [22] 1.49 µM | AC50 [23] 1.15 µM | AC50 [24] 0.955 µM
inactive: AC50 [25] > 39 µM

c1ccc(-c2cc(NCCN3CCCC3)c3ccccc3n2)cc1
active: IC50 [26] 5.46 µM | IC50 [27] 11.9 µM

COc1cccc(NC(=O)N2CC[C@@H]3[C@@H](CO)N(C)c4ccc(-c5cccc(F)c5)cc4[C@@H]32)c1
inactive: AC50 [28] > 52 µM

CCCCC(CC)COC(=O)CC(C(=O)OCC(CC)CCCC)S(=O)(=O)O (configuration not stated) [DOCUSATE]
inactive: IC50 [4] > 20 µM | IC50 [6] > 20 µM | IC50 [7] 16.6 µM | IC50 [8] > 20 µM | IC50 [29] > 40 µM | IC50 [9] > 20 µM | IC50 [30] 22.9 µM | IC50 [13] > 20 µM | IC50 [16] > 20 µM | IC50 [18] > 20 µM
